# In patent US9987371B2 (priority 2013, dated 2018):
# Entries after “also recorded” stand apart in the source; their conditions may differ. Where two headings read alike, the source gives them in different places.
# Legend:
# [1] = tested on: B16-F10 cells; format: cell-based
# [2] = tested on: GFP in B16 GFP cells; format: cell-based; details: for Able to transfect?: GFP knockdown at 50 nM; for outcome of screening for GFP siRNA delivery: peptide:polynucleotide ratio between 50:1 and 200:1
# [3] = tested on: GFP in B16 GFP cells; format: cell-based
# [4] = tested on: B16 GFP cells; test: Alamar Blue cell viability of transfected B16 GFP cells; format: cell-based
# Description: Cell viability was determined 72 hours post transfection using Alamar Blue (Life technologies). Briefly, Alamar Blue was diluted 1:10 into phenol red free medium and incubated with cells for 2-4 hours. Fluorescence was measured on a fluorescent plate reader with excitation at 570 nm and emission at 585 nm (Varian Cary Eclipse, Agilent Technologies, Santa Clara, Calif.).
# B16 GFP cells were transfected with increasing concentrations of p5RHH/siRNA nanoparticles containing GFP-specific or scrambled siRNA. For comparison, B16 GFP cells were also transfected with increasing concentrations of GFP specific or scrambled siRNA using lipofectamine 2000. RNA extracted from transfected cells was analyzed using Northern blot analysis, and normalized viability of transfected B16 cells was determined (FIG. 28).
# [5] = tested on: Rabbit red blood cells (RBC); test: RBC hemolysis; format: cell-based
# Description: The lytic capacity of liberated p5RHH can be quantified in vitro with red blood cell (RBC) hemolysis assays. When incubated at decreasing pH, the ability of p5RHH/siRNA nanoparticles to lyse RBC is enhanced, due to the release of free p5RHH at pH ≤5.5 (FIG. 210). These assays were performed at 4° C. to decrease the rate of auto-hemolysis observed at higher temperatures.
# Rabbit red blood cells (RBC) were isolated from whole blood by centrifugation and washed in PBS 3× before storage at 4° C. Prior to hemolysis studies, RBC were washed 3× in pH appropriate HBSS and diluted 1 to 5000. RBCs in pH-specific buffer were then incubated with p5RHH/siRNA nanoparticles for 12 hours. The RBC remnants were pelleted by centrifugation and the hemoglobin content of the supernatant was measured by UV absorbance at 550 nm. Absorbance values were then normalized against maximum lysis by p5RHH only controls and presented as the average of 3 separate experiments.
# [6] = tested on: B16-F10 cells
# [7] = tested on: HUVEC cells
# [8] = tested on: RAW264.7 cells
# [9] = all tested doses, Hou et al., 2013; cited from earlier work
# [10] = tested on: B16F10 cells; test: Confocal microscopy of cytoplasmic oligonucleotide release in B16 cells; format: cell-based
# [11] = tested on: B16F10 cells; test: Acridine orange staining for endosomal/lysosomal disruption; format: cell-based; details: 100 nM siRNA, 12 hours
# Description: Endosomal disruption in living cells was observed by acridine orange staining. Cells were first loaded with acridine orange (10 μM, 15 minutes), which fluoresces red at low pH in the endosome but green at cytoplasmic pH. Endosomal disruption can be visualized by an increase in cytoplasmic green fluorescence in the presence of 100 μM chloroquine (FIG. 21F).
# B16F10 cells plated on coverslips are loaded with acridine orange at 10 μM for 15 minutes and washed for 3× in PBS before incubation in the presence of p5RHH/siRNA nanoparticles in 10% DMEM at a final siRNA concentration of 100 nM for 12 hours. Alternatively, cells were exposed to chloroquine (Sigma) at 100 μM for 15 minutes prior to imaging. Live cells were visualized by fluorescence microscopy on an Olympus BX610 (Tokyo, Japan).
# [12] = charge ratio (+/−) 6:1 (peptide/siRNA 62:1, 28:1 or 50:1 by peptide)
# [13] = charge ratio (+/−) 12:1 (peptide/siRNA 124:1, 56:1 or 100:1 by peptide)
# [14] = charge ratio (+/−) 24:1 (peptide/siRNA 248:1, 112:1 or 200:1 by peptide)
compound,measurement,setting,value
CCN(c1nc(N)c(C(=O)NC(=N)N)nc1Cl)C(C)C [EIPA],effect of endocytosis inhibitor on p5RHH/siRNA nanoparticle uptake,[1],dramatically reduces p5RHH/siRNA uptake; also recorded: nearly abolishes nanoparticle uptake
"CC[C@H](C)[C@H](NC(=O)CN)C(=O)NCC(=O)N[C@@H](C)C(=O)N[C@H](C(=O)N[C@@H](CC(C)C)C(=O)N[C@@H](CCCCN)C(=O)N[C@H](C(=O)N[C@@H](CC(C)C)C(=O)N[C@H](C(=O)N[C@H](C(=O)NCC(=O)N[C@@H](CC(C)C)C(=O)N1CCC[C@H]1C(=O)N[C@@H](C)C(=O)N[C@@H](CC(C)C)C(=O)N[C@H](C(=O)N[C@@H](CO)C(=O)N[C@@H](Cc1c[nH]c2ccccc12)C(=O)N[C@H](C(=O)N[C@@H](CCCCN)C(=O)N[C@@H](CCCNC(=N)N)C(=O)N[C@@H](CCCCN)C(=O)N[C@@H](CCCNC(=N)N)C(=O)N[C@@H](CCC(N)=O)C(=O)N[C@@H](CCC(N)=O)C(N)=O)[C@@H](C)CC)[C@@H](C)CC)[C@@H](C)O)[C@@H](C)O)C(C)C)C(C)C [Melittin, reference compound]",Able to transfect?,[2]; [12],No
same,Able to transfect?,[2]; [13],Toxic
same,Able to transfect?,[2]; [14],Toxic
same,outcome of screening for GFP siRNA delivery,[2],too toxic
"CO/C1=C\C(C)=C\[C@@H](C)[C@@H](O)[C@@H](C)C/C(C)=C/C=C/[C@H](OC)[C@@H]([C@@H](C)[C@@H](O)[C@H](C)[C@@]2(O)C[C@@H](O)[C@H](C)[C@@H](C(C)C)O2)OC1=O [bafilomycin A1, reference compound]",effect of bafilomycin A1 on p5RHH mediated GFP knockdown,[2],near complete loss of GFP knockdown; also recorded: blocks knockdown of GFP
same,effect of bafilomycin A1 on p5RHH/siRNA uptake,[1],did not impair p5RHH/siRNA uptake; also recorded: does not inhibit uptake
"CCN(CC)CCCC(C)Nc1ccnc2cc(Cl)ccc12 (centres unmarked) [chloroquine, reference compound]",effect of chloroquine on p5RHH mediated GFP knockdown,[3],does not improve knockdown
CCCCC[C@@H](O)[C@H]1C(=O)O[C@H](C)[C@@H](O)/C=C/C=C/C=C/C=C/C=C(\C)[C@@H](O)C[C@H](O)C[C@H](O)C[C@H](O)C[C@H](O)C[C@H](O)C[C@@H]1O [filipin],effect of endocytosis inhibitor on p5RHH/siRNA nanoparticle uptake,[1],no effect; also recorded: do not inhibit
CC[C@H](C)[C@H](NC(=O)[C@H](CC(C)C)NC(=O)[C@H](C)NC(=O)[C@@H]1CCCN1C(=O)[C@H](CC(C)C)NC(=O)CNC(=O)[C@@H](NC(=O)[C@@H](NC(=O)[C@H](CC(C)C)NC(=O)[C@@H](N)C(C)C)[C@@H](C)O)[C@@H](C)O)C(=O)N[C@@H](CO)C(=O)N[C@@H](Cc1c[nH]c2ccccc12)C(=O)N[C@H](C(=O)N[C@@H](CCCNC(=N)N)C(=O)N[C@@H](CCCNC(=N)N)C(=O)N[C@@H](CCCNC(=N)N)C(=O)N[C@@H](Cc1c[nH]cn1)C(=O)N[C@@H](CCCNC(=N)N)C(=O)N[C@@H](CCCNC(=N)N)C(=O)N[C@@H](Cc1c[nH]cn1)C(=O)N[C@@H](CS)C(=O)O)[C@@H](C)CC [p5RHH],cytotoxicity at p5RHH:siRNA ratios up to 200:1,"[4]; Alamar blue, 50 nM siRNA",no sign of cytotoxicity
same,decrease in cell viability,[4]; highest concentrations tested,~3%
same,toxicity by Alamar blue,[4]; siRNA concentrations up to 200 nM,minimal toxicity
same,IC50,"[5]; free peptide, normalized to 0.1% Triton-X, read-out: IC50 of RBC lysis",200 to 400 µM
same,pH at which hemolysis / hemoglobin release is increased,"[5]; p5RHH/siRNA nanoparticles, 4° C.",≤ 5.5
same,nonspecific cytotoxicity (B16 viability),[6],no effect on B16 viability
same,decreased B16-F10 viability,[6]; mouse,60%
same,cytotoxicity towards HUVEC cells,[7],no cytotoxicity
same,cytotoxicity in RAW264.7 cells,[8],without cytotoxicity
same,decrease in cell viability,[8],~5%
same,cytotoxicity,[9],without significant cytotoxicity
VLKVLTTLAPALISWIRRRHRRC [p5RH-LL],Able to transfect?,[2]; [12],No
same,Able to transfect?,[2]; [13],Yes
same,Able to transfect?,[2]; [14],No
same,outcome of screening for GFP siRNA delivery,[2],able to transfect
VLTTGLPALISWIKRKRQQC [Peptide 5C],Able to transfect?,[2]; [12],No
same,Able to transfect?,[2]; [13],No
same,Able to transfect?,[2]; [14],No
VLTTGLPALISWIKRKRQQRWRRRR [p5RWR],Able to transfect?,[2]; [12],No
same,Able to transfect?,[2]; [13],No
same,Able to transfect?,[2]; [14],No
same,siRNA transfection ability (GFP knockdown),"[2]; flow cytometry, without / with 50 μM chloroquine",unable to initiate GFP knockdown without the aid of chloroquine; also recorded: no siRNA transfection ability
same,GFP knockdown by western blotting,[3],unable to induce GFP knockdown even in the presence of chloroquine
same,oligonucleotide release into the cytoplasm,[10],do not reach the cytoplasm; also recorded: does not manifest appreciable oligonucleotide release into the cytoplasm
same,endosomal disruption (acridine orange release),[11],cannot
VLTTGLPALISWIRRRHRRC [p5RH],Able to transfect?,[2]; [12],No
same,Able to transfect?,[2]; [13],Yes
same,Able to transfect?,[2]; [14],No
same,outcome of screening for GFP siRNA delivery,[2],able to transfect
